{"source": "paper PMC6509210", "about": "“ALK2 inhibitors display beneficial effects in preclinical models of ACVR1 mutant diffuse intrinsic pontine glioma” (Communications Biology, 2019)", "system": "phospho-SMAD1/5/8 and ID1 in HSJD-DIPG-007 xenograft tumours", "assay": "Pharmacodynamic biomarkers by Western blot in orthotopic HSJD-DIPG-007 xenograft tumours", "format": "in vivo, NOD.SCID mice", "conditions": "daily oral administration, end of 28 days", "procedure": "Fig. 5 In vivo pharmacokinetics/pharmacodynamics of LDN-193189 (top) and LDN-214117 (bottom). a, e Tolerability in NOD.SCID mice exposed to daily oral treatment with inhibitor over 14 days, as assessed by body weight relative to day 0. Mean and standard deviation of 3 mice per group are plotted. b, f Blood levels of compounds up to 8 h post-exposure to a single oral dose of drug at day 14. Mean and standard deviation of 3 mice per group are plotted. c, g Barplot of compound concentrations in blood (red), plasma (yellow) and brain tissue (blue) 2 h post-exposure to a single oral dose of drug at day 14. […]\nFor growth factor starvation, cells were washed twice with PBS and then incubated for 1 h in stem cell medium without growth factors. […] Following quantification using Pierce BCA Protein Assay Kit (Thermo Fisher), equal amounts of cell extracts were loaded for Western blot analysis. […] Signal was detected with ECL Prime western blotting detection agent (Amersham Biosciences), visualised using Hyperfilm ECL (Amersham Biosciences) and analysed using an X-ray film processor in accordance with standard protocols. […]"}
{"smiles": "c1ccc2c(-c3cnn4cc(-c5ccc(N6CCNCC6)cc5)cnc34)ccnc2c1", "note": "[LDN-193189]", "values": [{"measurement": "reduction in pharmacodynamic biomarkers phospho-SMAD1/5/8 and ID1 in tumours", "result": "near-ablation of phospho-SMAD1/5/8 and ID1"}]}
